ChEMBL document CHEMBL3400135, “Design, synthesis and biological evaluation of novel homocamptothecin analogues as potent antitumor agents” (Bioorg Med Chem, 2015)

What was measured:
[1] = tested on: Mus musculus; experiment: Toxicity in human HT-29 cells xenografted mouse assessed as body weight change at 3 mg/kg, iv dosed three times per week to the end of treatment (reference value: 12.7%); format: organism-based; parameters: dose 3 mg/kg, route intravenous; details: in vivo
[2] = tested on: Mus musculus; experiment: Toxicity in human HT-29 cells xenografted mouse assessed as body weight level at 3 mg/kg, iv dosed three times per week to the end of treatment measured on day 14 (reference value: 22.7 +/- 1.5 g); format: organism-based; parameters: dose 3 mg/kg, route intravenous; details: in vivo
[3] = Stability in pH 7.4 PBS buffer assessed as formation of carboxylate forms at 1 uM incubated at 37 degC by HPLC method; format: physicochemical; details: pH 7.4, 1 µM
[4] = tested on: HT-29; experiment: Antitumor activity against human HT-29 cells xenografted in mouse assessed as relative tumor increment rate at 3 mg/kg, iv dosed three times per week to the end of treatment relative to untreated control; format: functional
[5] = tested on: HT-29; experiment: Antitumor activity against human HT-29 cells xenografted in mouse assessed as tumor volume at 0.5 mg/kg, iv dosed three times per week to the end of treatment measured on day 3 (reference value: 168 +/- 46 mm3); format: functional
[6] = tested on: Mus musculus; experiment: Toxicity in human HT-29 cells xenografted mouse assessed as lethal toxicity at 0.5 mg/kg, iv dosed three times per week to the end of treatment; format: organism-based; parameters: dose 0.5 mg/kg, route intravenous; details: in vivo
[7] = tested on: HT-29; experiment: Antitumor activity against human HT-29 cells xenografted in mouse assessed as tumor volume at 3 mg/kg, iv dosed three times per week to the end of treatment measured on day 17 (reference value: 807 +/- 197 mm3); format: functional
[8] = Cytotoxicity against human HCT116 cells after 72 hrs by sulforhodamine B assay; format: functional, cell-based, HCT-116; details: hct-116
[9] = Stability in human plasma assessed as lactone moieties level at 1 uM incubated at 37 degC after 3 hrs by HPLC method; format: ADME, cell-free; details: read-out: Stability
[10] = tested on: HT-29; experiment: Antitumor activity against human HT-29 cells xenografted in mouse assessed as relative tumor increment rate at 0.5 mg/kg, iv dosed three times per week to the end of treatment relative to untreated control; format: functional
[11] = tested on: Mus musculus; experiment: Toxicity in human HT-29 cells xenografted mouse assessed as body weight level at 0.5 mg/kg, iv dosed three times per week to the end of treatment measured on day 14 (reference value: 22.7 +/- 1.5 g); format: organism-based; parameters: dose 0.5 mg/kg, route intravenous; details: in vivo
[12] = tested on: Mus musculus; experiment: Toxicity in human HT-29 cells xenografted mouse assessed as body weight level at 3 mg/kg, iv dosed three times per week to the end of treatment measured on day 7 (reference value: 21.7 +/- 1 g); format: organism-based; parameters: dose 3 mg/kg, route intravenous; details: in vivo
[13] = tested on: Mus musculus; experiment: Toxicity in human HT-29 cells xenografted mouse assessed as induction of overt toxic symptoms at 0.5 mg/kg, iv dosed three times per week to the end of treatment; format: organism-based; parameters: dose 0.5 mg/kg, route intravenous; details: in vivo
[14] = tested on: Mus musculus; experiment: Toxicity in human HT-29 cells xenografted mouse assessed as body weight level at 0.5 mg/kg, iv dosed three times per week to the end of treatment measured on day 17 (reference value: 22 +/- 1.7 g); format: organism-based; parameters: dose 0.5 mg/kg, route intravenous; details: in vivo
[15] = tested on: HT-29; experiment: Antitumor activity against human HT-29 cells xenografted in mouse assessed as tumor volume at 0.5 mg/kg, iv dosed three times per week to the end of treatment measured on day 7 (reference value: 229 +/- 57 mm3); format: functional
[16] = tested on: Mus musculus; experiment: Toxicity in human HT-29 cells xenografted mouse assessed as body weight level at 0.5 mg/kg, iv dosed three times per week to the end of treatment measured on day 21 (reference value: 21.2 +/- 1.6 g); format: organism-based; parameters: dose 0.5 mg/kg, route intravenous; details: in vivo
[17] = tested on: HT-29; experiment: Antitumor activity against human HT-29 cells xenografted in mouse assessed as tumor volume at 3 mg/kg, iv dosed three times per week to the end of treatment measured on day 21 (reference value: 1272+/- 273 mm3); format: functional
[18] = tested on: Mus musculus; experiment: Toxicity in human HT-29 cells xenografted mouse assessed as body weight level at 3 mg/kg, iv dosed three times per week to the end of treatment measured on day 3 (reference value: 20.7 +/- 1.2 g); format: organism-based; parameters: dose 3 mg/kg, route intravenous; details: in vivo
[19] = tested on: Mus musculus; experiment: Toxicity in human HT-29 cells xenografted mouse assessed as body weight level at 0.5 mg/kg, iv dosed three times per week to the end of treatment measured on day 7 (reference value: 21.7 +/- 1 g); format: organism-based; parameters: dose 0.5 mg/kg, route intravenous; details: in vivo
[20] = tested on: Mus musculus; experiment: Toxicity in human HT-29 cells xenografted mouse assessed as induction of anaphylactic reaction at 0.5 mg/kg, iv dosed three times per week to the end of treatment; format: organism-based; parameters: dose 0.5 mg/kg, route intravenous; details: in vivo
[21] = tested on: HT-29; experiment: Antitumor activity against human HT-29 cells xenografted in mouse assessed as tumor volume at 0.5 mg/kg, iv dosed three times per week to the end of treatment measured on day 17 (reference value: 807 +/- 197 mm3); format: functional
[22] = tested on: HT-29; experiment: Antitumor activity against human HT-29 cells xenografted in mouse assessed as tumor volume at 0.5 mg/kg, iv dosed three times per week to the end of treatment measured on day 14 (reference value: 677 +/- 115 mm3); format: functional
[23] = tested on: Mus musculus; experiment: Toxicity in human HT-29 cells xenografted mouse assessed as lethal toxicity at 3 mg/kg, iv dosed three times per week to the end of treatment; format: organism-based; parameters: dose 3 mg/kg, route intravenous; details: in vivo
[24] = tested on: Mus musculus; experiment: Toxicity in human HT-29 cells xenografted mouse assessed as body weight level at 0.5 mg/kg, iv dosed three times per week to the end of treatment measured on day 10 (reference value: 22.4 +/- 1.3 g); format: organism-based; parameters: dose 0.5 mg/kg, route intravenous; details: in vivo
[25] = tested on: Mus musculus; experiment: Toxicity in human HT-29 cells xenografted mouse assessed as body weight level at 3 mg/kg, iv dosed three times per week to the end of treatment measured on day 17 (reference value: 22 +/- 1.7 g); format: organism-based; parameters: dose 3 mg/kg, route intravenous; details: in vivo
[26] = tested on: Mus musculus; experiment: Toxicity in human HT-29 cells xenografted mouse assessed as induction of overt toxic symptoms at 3 mg/kg, iv dosed three times per week to the end of treatment; format: organism-based; parameters: dose 3 mg/kg, route intravenous; details: in vivo
[27] = tested on: HT-29; experiment: Antitumor activity against human HT-29 cells xenografted in mouse assessed as tumor volume at 3 mg/kg, iv dosed three times per week to the end of treatment measured on day 3 (reference value: 168 +/- 46 mm3); format: functional
[28] = tested on: HT-29; experiment: Antitumor activity against human HT-29 cells xenografted in mouse assessed as tumor volume at 3 mg/kg, iv dosed three times per week to the end of treatment measured on day 7 (reference value: 229 +/- 57 mm3); format: functional
[29] = tested on: HT-29; experiment: Antitumor activity against human HT-29 cells xenografted in mouse assessed as tumor volume at 3 mg/kg, iv dosed three times per week to the end of treatment measured on day 14 (reference value: 677 +/- 115 mm3); format: functional
[30] = tested on: Mus musculus; experiment: Toxicity in human HT-29 cells xenografted mouse assessed as body weight level at 0.5 mg/kg, iv dosed three times per week to the end of treatment measured on day 3 (reference value: 20.7 +/- 1.2 g); format: organism-based; parameters: dose 0.5 mg/kg, route intravenous; details: in vivo
[31] = tested on: Mus musculus; experiment: Toxicity in human HT-29 cells xenografted mouse assessed as body weight level at 3 mg/kg, iv dosed three times per week to the end of treatment measured on day 10 (reference value: 22.4 +/- 1.3 g); format: organism-based; parameters: dose 3 mg/kg, route intravenous; details: in vivo
[32] = tested on: Mus musculus; experiment: Toxicity in human HT-29 cells xenografted mouse assessed as body weight level at 3 mg/kg, iv dosed three times per week to the end of treatment measured on day 21 (reference value: 21.2 +/- 1.6 g); format: organism-based; parameters: dose 3 mg/kg, route intravenous; details: in vivo
[33] = tested on: HT-29; experiment: Cytotoxicity against human HT-29 cells after 72 hrs by sulforhodamine B assay; format: functional, cell-based; details: ht-29
[34] = Solubility in water; format: physicochemical
[35] = tested on: Mus musculus; experiment: Toxicity in human HT-29 cells xenografted mouse assessed as induction of anaphylactic reaction at 3 mg/kg, iv dosed three times per week to the end of treatment; format: organism-based; parameters: dose 3 mg/kg, route intravenous; details: in vivo
[36] = tested on: HT-29; experiment: Antitumor activity against human HT-29 cells xenografted in mouse assessed as tumor volume at 0.5 mg/kg, iv dosed three times per week to the end of treatment measured on day 21 (reference value: 1272+/- 273 mm3); format: functional
[37] = tested on: HCT-116; experiment: Potency index, ratio of IC50 for SN38 to IC50 for compound against human HCT116 cells after 72 hrs by sulforhodamine B assay; format: functional
[38] = tested on: HT-29; experiment: Antitumor activity against human HT-29 cells xenografted in mouse assessed as tumor volume at 0.5 mg/kg, iv dosed three times per week to the end of treatment measured on day 10 (reference value: 386 +/- 77 mm3); format: functional
[39] = tested on: HT-29; experiment: Antitumor activity against human HT-29 cells xenografted in mouse assessed as tumor volume at 3 mg/kg, iv dosed three times per week to the end of treatment measured on day 10 (reference value: 386 +/- 77 mm3); format: functional

SMILES: CC[C@]1(O)c2cc3n(c(=O)c2COC(=O)[C@H]1OC)Cc1c-3nc2cc3c(cc2c1-c1ccncc1)OCO3.Cl
- Activity [1]: -2.6%
- Activity [2]: 18.1 g
- Stability [3]: Stable
- T/C [4]: 0%
- Activity [5]: 156 mm3
- Activity [6]: Non-toxic
- Activity [7]: 15 mm3
- IC50 [8]: 0.628 nM
- remaining at 3 h, 1 µM [9]: 55%
- T/C [10]: 42.84%
- Activity [11]: 22.5 g
- Activity [12]: 18.6 g
- Activity [13]: Non-toxic
- Activity [14]: 22.2 g
- Activity [15]: 187 mm3
- Activity [16]: 21.3 g
- Activity [17]: 0 mm3
- Activity [18]: 19.8 g
- Activity [19]: 21.4 g
- Activity [20]: Non-toxic
- Activity [21]: 380 mm3
- Activity [22]: 327 mm3
- Activity [23]: Non-toxic
- Activity [24]: 22 g
- Activity [25]: 18.4 g
- Activity [26]: Non-toxic
- Activity [27]: 124 mm3
- Activity [28]: 93 mm3
- Activity [29]: 51 mm3
- Activity [30]: 20.5 g
- Activity [31]: 16.8 g
- Activity [32]: 18.7 g
- IC50 [33]: 3.41 nM
- solubility [34]: 1200 µg/mL
- Activity [35]: Non-toxic
- Activity [36]: 550 mm3
- Ratio IC50 [37]: 20
- Activity [38]: 262 mm3
- Activity [39]: 52 mm3
